Assay results published in patent US20250145606A1 (Arcus Biosciences, Inc., priority 2023, published 2025).

What was measured:
Conditions in all cases: biochemical, HTRF KinEASE-TK
c-Kit = c-Kit (Homo sapiens (Human), UniProt P10721); test: Inhibition of c-Kit kinase activity (HTRF KinEASE-TK); assay type: biochemical
Experimental: (§1) Inhibition of c-Kit, PDGFRα, PDGFRβ, CSFIR and FLT3 Kinase Activity
(§2) Compounds were evaluated to determine the potency with which they inhibit the kinase activity of the following panel of tyrosine kinases: c-Kit (SignalChem, Product #: K06-11BG), PDGFRα (SignalChem, Product #: P12-18G), PDGFRβ (SignalChem, Product #: P13-11G), CSFIR (SignalChem, Product #: C74-11G) and FLT3 (Invitrogen, Product #: PR4666C). Activity was determined as a function of phosphorylated biotinylated TK peptide generated by the transfer of phosphate from ATP as measured by the use of the HTRF KinEASE-TK assay kit (Cisbio, Product #: 62TKOPEJ). Levels of phosphorylated biotinylated TK peptide (Part 61TKOBLC of KinEASE assay kit) are quantified by its capture by phosphor-TK-Antibody-Cryptate (Part of KinEASE assay kit) and XL665-labeled Streptavidin (Part 610SAXLG of KinEASE assay kit) followed by measurement of Time-Resolved Fluorescence Resonance Energy Transfer (TR-FRET) signal. On the day of the assay, compounds were solubilized in DMSO and dispensed into a 384-well white Opti-plate (PerkinElmer, catalog #6007290) to generate a 22 point 1:2 titration. Enzyme solution was prepared for each of the tyrosine kinases in 50 mM HEPES, pH 7.4, 5 mM MgCl2 for c-Kit or 10 mM MgCl2 for FLT3, CSFIR, PDGFRa and PDGFRβ, 2 mM MnCl2, 0.01% Brij-35 and 0.01% BSA. Working enzyme concentrations were prepared for c-Kit at 2 nM (2×), PDGFRa and PDGFRß at 10 nM (2×), CSFIR at 2 nM (2×) and FLT3 at 0.4 nM (2×). Five microliters of enzyme dilution of each tyrosine kinase were added to their respective 384-well white Opti-plate pre-dispensed with compound and allowed to incubate for 1 h at rt. Utilizing the same enzyme buffer recipe, 2x substrate mixes were prepared for each enzyme as follows: For c-Kit, 1.6 μM (2×) TK substrate and 16 μM (2×) ATP (Promega, catalog #V915). For PDGFRα, 3.2 μM TK substrate and 1 μM ATP. For PDGFRβ, 3.2 μM TK substrate and 40 μM ATP. For CSFIR, […] TK substrate and 20 μM ATP. For FLT3, 3.2 μM TK substrate and 100 μM ATP. Reactions were initiated by addition of 5 μL of the respective 2x substrate mix to each well of the plates containing the respective tyrosine kinase enzymes and were allowed to proceed for 120 minutes at rt, except for FLT3, the reaction time is 45 min. Following the reaction, 10 μL of detection mix consisting of 0.2 μM (2×) of Streptavidin-XL665 and 2 μM (2×) of TK-Antibody-Cryptate prepared in detection buffer (Part 62SDBRDF of KinEASE assay kit) was added and then allowed to incubate for 60 min. The TR-FRET signal was quantified by measuring the ratio of emission at 665 nm to 620 nm after excitation at 320 nm by reading on a PerkinElmer Envision multimode reader. Compound potencies (IC50 values) were determined using a standard 4-parameter non-linear regression fit.

PDGFRα = PDGFRα (Homo sapiens (Human), UniProt P16234); test: Inhibition of PDGFRα kinase activity (HTRF KinEASE-TK)
Experimental: as §1, §2

PDGFRβ = PDGFRβ (Homo sapiens (Human), UniProt P09619); test: Inhibition of PDGFRβ kinase activity (HTRF KinEASE-TK)
Experimental: as §1, §2

CSF1R = CSF1R (Homo sapiens (Human), UniProt P07333); test: Inhibition of CSF1R kinase activity (HTRF KinEASE-TK)
Experimental: as §1, §2

Chain of c-Kit (P10721 26-976): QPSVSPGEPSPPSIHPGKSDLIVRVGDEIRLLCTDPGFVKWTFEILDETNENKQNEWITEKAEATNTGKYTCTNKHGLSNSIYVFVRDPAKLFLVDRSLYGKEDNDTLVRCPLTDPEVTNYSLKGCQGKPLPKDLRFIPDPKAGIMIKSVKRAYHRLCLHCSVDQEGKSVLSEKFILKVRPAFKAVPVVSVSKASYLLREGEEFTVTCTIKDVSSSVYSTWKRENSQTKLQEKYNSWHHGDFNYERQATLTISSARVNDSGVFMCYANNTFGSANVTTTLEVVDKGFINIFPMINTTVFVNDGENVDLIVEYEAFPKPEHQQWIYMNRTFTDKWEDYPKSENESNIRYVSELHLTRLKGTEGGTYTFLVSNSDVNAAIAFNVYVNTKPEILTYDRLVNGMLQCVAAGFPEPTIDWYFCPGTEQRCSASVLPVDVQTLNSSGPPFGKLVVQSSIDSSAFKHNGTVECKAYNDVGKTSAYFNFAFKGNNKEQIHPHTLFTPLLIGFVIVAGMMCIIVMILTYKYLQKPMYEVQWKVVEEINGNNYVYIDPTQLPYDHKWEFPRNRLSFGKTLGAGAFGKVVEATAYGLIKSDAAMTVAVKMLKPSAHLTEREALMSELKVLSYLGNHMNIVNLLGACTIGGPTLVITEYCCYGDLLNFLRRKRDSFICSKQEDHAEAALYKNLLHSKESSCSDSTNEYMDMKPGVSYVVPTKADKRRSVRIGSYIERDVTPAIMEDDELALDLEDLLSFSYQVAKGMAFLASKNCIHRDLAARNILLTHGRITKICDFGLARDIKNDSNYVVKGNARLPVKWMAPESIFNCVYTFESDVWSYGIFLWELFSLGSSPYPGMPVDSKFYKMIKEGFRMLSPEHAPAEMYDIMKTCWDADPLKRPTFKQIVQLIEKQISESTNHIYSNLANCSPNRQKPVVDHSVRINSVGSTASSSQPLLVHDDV
Chain of PDGFRα (P16234 24-1089): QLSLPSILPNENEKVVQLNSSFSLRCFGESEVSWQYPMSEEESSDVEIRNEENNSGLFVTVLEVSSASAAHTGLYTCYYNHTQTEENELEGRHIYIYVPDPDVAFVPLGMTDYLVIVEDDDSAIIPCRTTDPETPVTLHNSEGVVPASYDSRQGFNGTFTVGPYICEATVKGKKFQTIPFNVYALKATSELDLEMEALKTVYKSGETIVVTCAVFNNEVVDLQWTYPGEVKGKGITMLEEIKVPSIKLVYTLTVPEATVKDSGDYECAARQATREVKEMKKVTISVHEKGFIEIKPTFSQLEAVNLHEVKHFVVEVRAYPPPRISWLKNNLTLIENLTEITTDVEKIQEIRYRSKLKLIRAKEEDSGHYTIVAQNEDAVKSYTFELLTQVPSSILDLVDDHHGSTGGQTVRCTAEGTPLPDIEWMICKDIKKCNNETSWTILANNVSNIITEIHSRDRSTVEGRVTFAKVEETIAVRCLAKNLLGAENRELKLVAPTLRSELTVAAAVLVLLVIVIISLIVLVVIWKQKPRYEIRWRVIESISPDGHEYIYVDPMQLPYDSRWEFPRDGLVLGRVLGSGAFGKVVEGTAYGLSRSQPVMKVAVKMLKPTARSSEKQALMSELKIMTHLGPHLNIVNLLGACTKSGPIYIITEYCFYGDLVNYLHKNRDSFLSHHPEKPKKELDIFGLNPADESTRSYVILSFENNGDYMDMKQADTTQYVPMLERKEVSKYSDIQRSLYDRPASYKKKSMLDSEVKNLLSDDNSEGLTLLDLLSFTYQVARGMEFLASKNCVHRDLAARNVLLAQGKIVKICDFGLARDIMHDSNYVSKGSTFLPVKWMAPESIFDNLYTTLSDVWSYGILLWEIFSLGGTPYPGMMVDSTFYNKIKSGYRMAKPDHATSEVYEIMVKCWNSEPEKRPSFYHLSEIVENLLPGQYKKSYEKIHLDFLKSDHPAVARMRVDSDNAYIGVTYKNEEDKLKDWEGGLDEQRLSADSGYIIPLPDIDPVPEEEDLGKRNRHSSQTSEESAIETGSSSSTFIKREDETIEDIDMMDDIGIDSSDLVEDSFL
Chain of PDGFRβ (P09619 33-1106): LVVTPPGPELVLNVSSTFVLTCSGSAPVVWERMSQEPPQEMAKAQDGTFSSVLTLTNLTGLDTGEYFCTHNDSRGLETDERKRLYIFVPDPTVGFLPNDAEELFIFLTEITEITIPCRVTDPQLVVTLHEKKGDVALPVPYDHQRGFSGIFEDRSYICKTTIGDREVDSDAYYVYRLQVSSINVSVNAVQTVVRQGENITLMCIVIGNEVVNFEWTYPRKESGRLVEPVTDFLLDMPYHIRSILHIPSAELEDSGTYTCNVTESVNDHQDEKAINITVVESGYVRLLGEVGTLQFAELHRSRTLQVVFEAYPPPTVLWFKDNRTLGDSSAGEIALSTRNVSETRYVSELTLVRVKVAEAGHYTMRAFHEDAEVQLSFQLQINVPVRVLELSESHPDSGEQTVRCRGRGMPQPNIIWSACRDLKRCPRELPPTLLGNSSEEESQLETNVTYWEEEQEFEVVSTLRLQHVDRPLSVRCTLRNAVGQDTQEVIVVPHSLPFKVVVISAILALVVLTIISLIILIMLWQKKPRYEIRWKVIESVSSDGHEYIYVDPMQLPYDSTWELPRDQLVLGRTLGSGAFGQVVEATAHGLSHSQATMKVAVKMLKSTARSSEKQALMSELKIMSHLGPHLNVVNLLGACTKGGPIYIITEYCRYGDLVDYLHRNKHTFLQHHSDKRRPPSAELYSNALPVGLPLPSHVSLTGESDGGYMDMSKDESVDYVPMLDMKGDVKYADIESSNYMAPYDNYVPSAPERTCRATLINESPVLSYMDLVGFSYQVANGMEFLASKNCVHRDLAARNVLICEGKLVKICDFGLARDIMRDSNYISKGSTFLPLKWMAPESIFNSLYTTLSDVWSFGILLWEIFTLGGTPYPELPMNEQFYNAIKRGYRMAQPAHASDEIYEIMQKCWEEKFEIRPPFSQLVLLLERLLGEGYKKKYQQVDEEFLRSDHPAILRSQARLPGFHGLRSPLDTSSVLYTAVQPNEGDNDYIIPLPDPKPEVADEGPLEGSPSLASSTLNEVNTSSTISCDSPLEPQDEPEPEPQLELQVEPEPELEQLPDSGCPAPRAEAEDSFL
Chain of CSF1R (P07333 20-972): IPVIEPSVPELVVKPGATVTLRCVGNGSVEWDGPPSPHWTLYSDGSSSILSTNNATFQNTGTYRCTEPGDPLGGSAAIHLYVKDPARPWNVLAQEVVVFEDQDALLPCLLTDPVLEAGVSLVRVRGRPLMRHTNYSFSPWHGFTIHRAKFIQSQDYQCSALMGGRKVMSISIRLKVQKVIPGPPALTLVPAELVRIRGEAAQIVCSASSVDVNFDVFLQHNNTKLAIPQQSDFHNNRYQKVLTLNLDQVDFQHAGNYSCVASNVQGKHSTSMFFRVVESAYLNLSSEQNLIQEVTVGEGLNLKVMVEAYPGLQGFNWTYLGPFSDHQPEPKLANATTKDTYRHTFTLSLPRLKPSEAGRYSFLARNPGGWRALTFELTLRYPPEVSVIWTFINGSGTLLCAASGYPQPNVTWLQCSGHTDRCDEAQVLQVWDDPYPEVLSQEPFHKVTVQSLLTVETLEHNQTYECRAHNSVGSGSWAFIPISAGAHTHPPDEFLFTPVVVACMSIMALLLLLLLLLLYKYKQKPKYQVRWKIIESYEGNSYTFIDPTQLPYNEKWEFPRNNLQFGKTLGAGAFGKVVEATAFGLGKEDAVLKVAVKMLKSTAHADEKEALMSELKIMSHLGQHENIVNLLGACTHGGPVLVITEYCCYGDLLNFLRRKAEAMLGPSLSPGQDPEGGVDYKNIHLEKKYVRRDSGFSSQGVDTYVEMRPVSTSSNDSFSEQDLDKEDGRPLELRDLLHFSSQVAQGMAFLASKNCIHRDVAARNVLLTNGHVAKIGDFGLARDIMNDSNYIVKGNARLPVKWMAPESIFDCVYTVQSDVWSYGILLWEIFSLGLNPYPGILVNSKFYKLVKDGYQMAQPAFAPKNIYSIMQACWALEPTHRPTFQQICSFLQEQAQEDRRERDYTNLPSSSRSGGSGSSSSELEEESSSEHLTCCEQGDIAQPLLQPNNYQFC

| Structure (SMILES) | IC50 (c-Kit) | IC50 (PDGFRα) | IC50 (PDGFRβ) | IC50 (CSF1R) |
| --- | --- | --- | --- | --- |
| Cc1cc(F)c(C(=O)Nc2ccc(OC3COC4(CC4)C3)cn2)cc1NC(=O)c1cnc(N)s1 (stereo not drawn) [Example 199, 2-Amino-N-[4-fluoro-2-methyl-5-[[5-(4-oxaspiro[2.4]heptan-6-yloxy)pyridin-2-yl]carbamoyl]phenyl]-1,3-thiazole-5-carboxamide] | < 100 nM | > 1000 nM | > 1000 nM | > 1000 nM |
| COCc1ccc(NC(=O)c2cc(NC(=O)c3cnc(C)s3)c(C)cc2F)nc1 [Example 37, N-[4-fluoro-5-[[5-(methoxymethyl)pyridin-2-yl]carbamoyl]-2-methylphenyl]-2-methyl-1,3-thiazole-5-carboxamide] | 100 to 1000 nM | > 1000 nM | > 1000 nM | > 1000 nM |
| Cc1ncc(C(=O)Nc2cc(C(=O)Nc3ccn(C(F)F)n3)c(F)cc2C)s1 [Example 69, N-[5-[[1-(difluoromethyl)pyrazol-3-yl]carbamoyl]-4-fluoro-2-methylphenyl]-2-methyl-1,3-thiazole-5-carboxamide] | 100 to 1000 nM | > 1000 nM | > 1000 nM | > 1000 nM |
| Cc1cc(F)c(C(=O)Nc2ccn(CC3CC3)n2)cc1NC(=O)c1cnc(N)s1 [Example 151, 2-Amino-N-[5-[[1-(cyclopropylmethyl)pyrazol-3-yl]carbamoyl]-4-fluoro-2-methylphenyl]-1,3-thiazole-5-carboxamide] | < 100 nM | 100 to 1000 nM | < 100 nM | 100 to 1000 nM |
| Cc1cc(F)c(C(=O)NCCCN2CCOCC2)cc1NC(=O)c1cnc(N)s1 [Example 164, 2-Amino-N-[4-fluoro-2-methyl-5-(3-morpholin-4-ylpropylcarbamoyl)phenyl]-1,3-thiazole-5-carboxamide] | < 100 nM | > 1000 nM | > 1000 nM | > 1000 nM |
| Cc1ncc(C(=O)Nc2cc(C(=O)NCc3ccn(C(C)C)n3)c(F)cc2C)s1 [Example 79, N-[4-fluoro-2-methyl-5-[(1-propan-2-ylpyrazol-3-yl)methylcarbamoyl]phenyl]-2-methyl-1,3-thiazole-5-carboxamide] | < 100 nM | > 1000 nM | > 1000 nM | > 1000 nM |
| Cc1cc(F)c(C(=O)Nc2nnc(C3CC3)s2)cc1NC(=O)c1cnc(N)s1 [Example 175, 2-Amino-N-[5-[(5-cyclopropyl-1,3,4-thiadiazol-2-yl)carbamoyl]-4-fluoro-2-methylphenyl]-1,3-thiazole-5-carboxamide] | < 100 nM | 100 to 1000 nM | < 100 nM | < 100 nM |
| Cc1cc(F)c(C(=O)Nc2nc(C3CC3)cs2)cc1NC(=O)c1cnc(N)s1 [Example 170, 2-Amino-N-[5-[(4-cyclopropyl-1,3-thiazol-2-yl)carbamoyl]-4-fluoro-2-methylphenyl]-1,3-thiazole-5-carboxamide] | < 100 nM | > 1000 nM | 100 to 1000 nM | 100 to 1000 nM |
| Cc1cc(F)c(C(=O)Nc2ncc(C(C)C)s2)cc1NC(=O)c1cnc(N)s1 [Example 146, 2-Amino-N-[4-fluoro-2-methyl-5-[(5-propan-2-yl-1,3-thiazol-2-yl)carbamoyl]phenyl]-1,3-thiazole-5-carboxamide] | < 100 nM | < 100 nM | < 100 nM | < 100 nM |
| Cc1cc(Cl)c(C(=O)Nc2ccc(OC3CC3)cn2)cc1NC(=O)c1cnc(N)s1 [Example 224, 2-Amino-N-[4-chloro-5-[(5-cyclopropyloxypyridin-2-yl)carbamoyl]-2-methylphenyl]-1,3-thiazole-5-carboxamide] | < 100 nM | > 1000 nM | 100 to 1000 nM | > 1000 nM |
| Cc1cc(F)c(C(=O)Nc2ccc(C3(C#N)CC3)nn2)cc1NC(=O)c1cnc(N)s1 [Example 119, 2-Amino-N-[5-[[6-(1-cyanocyclopropyl)pyridazin-3-yl]carbamoyl]-4-fluoro-2-methylphenyl]-1,3-thiazole-5-carboxamide] | < 100 nM | > 1000 nM | 100 to 1000 nM | 100 to 1000 nM |
| Cc1ncc(C(=O)Nc2cc(C(=O)Nc3ccc(OCC4CC4)cn3)c(F)cc2C)s1 [Example 65, N-[5-[[5-(cyclopropylmethoxy)pyridin-2-yl]carbamoyl]-4-fluoro-2-methylphenyl]-2-methyl-1,3-thiazole-5-carboxamide] | < 100 nM | > 1000 nM | > 1000 nM | > 1000 nM |
| Cc1cc(F)c(C(=O)Nc2cc(C3CC3)[nH]n2)cc1NC(=O)c1cnc(N)s1 [Example 177, 2-Amino-N-[5-[(5-cyclopropyl-1H-pyrazol-3-yl)carbamoyl]-4-fluoro-2-methylphenyl]-1,3-thiazole-5-carboxamide] | < 100 nM | 100 to 1000 nM | 100 to 1000 nM | 100 to 1000 nM |
| Cc1ncc(C(=O)Nc2cc(C(=O)Nc3ccc(C(F)F)cn3)c(F)cc2C)s1 [Example 16, N-[5-[[5-(Difluoromethyl)pyridin-2-yl]carbamoyl]-4-fluoro-2-methylphenyl]-2-methyl-1,3-thiazole-5-carboxamide] | < 100 nM | > 1000 nM | > 1000 nM | > 1000 nM |
| Cc1cc(F)c(C(=O)Nc2ccc(OC3CC3)cn2)cc1NC(=O)c1cnc(NC(=O)C(C)(C)O)s1 [Example 109, N-[5-[(5-cyclopropyloxypyridin-2-yl)carbamoyl]-4-fluoro-2-methylphenyl]-2-[(2-hydroxy-2-methylpropanoyl)amino]-1,3-thiazole-5-carboxamide] | 100 to 1000 nM | > 1000 nM | > 1000 nM | > 1000 nM |
| Cc1ncc(C(=O)Nc2cc(C(=O)NCCCN3CCOCC3)c(F)cc2C)s1 [Example 57, N-[4-Fluoro-2-methyl-5-(3-morpholin-4-ylpropylcarbamoyl)phenyl]-2-methyl-1,3-thiazole-5-carboxamide] | 100 to 1000 nM | > 1000 nM | > 1000 nM | > 1000 nM |
| Cc1ncc(C(=O)Nc2cc(C(=O)Nc3ccc(OC4CC4)c(C)n3)c(F)cc2C)s1 [Example 62, N-[5-[(5-Cyclopropyloxy-6-methylpyridin-2-yl)carbamoyl]-4-fluoro-2-methylphenyl]-2-methyl-1,3-thiazole-5-carboxamide] | < 100 nM | > 1000 nM | > 1000 nM | > 1000 nM |
| CO[C@H]1C[C@@H](n2nccc2NC(=O)c2cc(NC(=O)c3cnc(N)s3)c(C)cc2F)C1 [Example 186, 2-Amino-N-[4-fluoro-5-[[2-(cis-3-methoxycyclobutyl)pyrazol-3-yl]carbamoyl]-2-methylphenyl]-1,3-thiazole-5-carboxamide] | 100 to 1000 nM | > 1000 nM | > 1000 nM | > 1000 nM |
| COc1ccc(NC(=O)c2cc(NC(=O)c3cnc(N)s3)c(C)cc2F)c(F)c1 [Example 228, 2-Amino-N-[4-fluoro-5-[(2-fluoro-4-methoxyphenyl)carbamoyl]-2-methylphenyl]-1,3-thiazole-5-carboxamide] | < 100 nM | 100 to 1000 nM | 100 to 1000 nM | 100 to 1000 nM |
| COCCOc1ccc(NC(=O)c2cc(NC(=O)c3cnc(N)s3)c(C)cc2F)nc1 [Example 252, 2-Amino-N-[4-fluoro-5-[[5-(2-methoxyethoxy)pyridin-2-yl]carbamoyl]-2-methylphenyl]-1,3-thiazole-5-carboxamide] | < 100 nM | > 1000 nM | > 1000 nM | > 1000 nM |
| Cc1cc(F)c(C(=O)Nc2ccc(OC3CC3)cc2F)cc1NC(=O)c1cnc(N)s1 [Example 128] | < 100 nM | 100 to 1000 nM | < 100 nM | 100 to 1000 nM |
